Laboratory results: patent publication US7902218B2, “Substituted tetrahydroisoquinolines as β-secretase inhibitors” (Bristol-Myers Squibb Company, priority 2006, dated 2011)
Like-named read-outs stand apart in the source and are kept apart here.

Target: T1, BACE1 enzyme (Homo sapiens, UniProt P56817)
T1 construct: which overexpresses the BACE1 enzyme, was derived from HEK293 cells; endogenous in cells; washed 48,000 x g pellet of the cell homogenate
Assay: Radioligand displacement assay with a radiolabeled BACE inhibitor, HEK293-9B.A1 cell homogenate
Type: binding
Description: There are a number of methods by which inhibitors of the BACE enzyme can be identified experimentally. The enzyme can be obtained from membrane samples from natural tissues or cultured cells or can be expressed recombinantly in a host cell by well known methods of molecular biology. […] The enzymatic activity and/or ligand binding capability of the enzyme can be assessed within these membrane samples, or the enzyme can be purified to varying extents. As an illustrative example, the nucleic acid sequence encoding the pro and catalytic domains of human BACE can be appended on the 5′ end with an untranslated and signal sequence from the gene for acetylcholinesterase, and on the 3′ end with a sequence encoding a poly-histidine tag. This cDNA can then be expressed in Drosophila melanogaster S2 cells in which the signal and pro sequences of the transcribed/translated protein are removed by cellular proteases and the catalytic domain, appended by a C-terminal poly-histidine tag, is secreted out into the cellular medium. The enzyme can then be purified from the culture medium by nickel affinity chromatography by methods well known to those trained in the art [Mallender, W. et al., “Characterization of recombinant, soluble beta-secretase from an insect cell expression system.” Mol. Pharmacol. 2001, 59: 619-626]. Similar strategies for expressing and purifying various forms of BACE in bacterial, mammalian and other cell types would be known to one skilled in the art.
Radioligand displacement assays with a radiolabeled BACE inhibitor (WO 2004 013098, compound 3, where the methoxy group is substituted for C(^3H)3) were carried out using standard methods (Keen, M. (1999) in Receptor Binding Techniques (Walker, J. M. ed) p. 106 Humana Press, Totowa, N.J.). The HEK293-9B.A1 cell line, which overexpresses the BACE1 enzyme, was derived from HEK293 cells (Simmons, N. L. (1990) A cultured human renal epithelioid cell line responsive to vasoactive intestinal peptide. Exp. Physiol. 75:309-19.) by RAGE™ (Harrington, J. J. et al. (2001) Creation of genome-wide protein expression libraries using random activation of gene expression. Nat. Biotechnol. 19:440-5.; U.S. Pat. Nos. 6,410,266 and 6,361,972). T225 flask cultures of HEK293-9B.A1 were grown to 80% confluency in DMEM supplemented with 2 mM L-glutamine, 10 μg/ml penecillin, 10 μg/ml streptomycin, 3 μg/ml puromycin, 100 nM methotrexate, and 10% fetal bovine serum (Invitrogen, Carlsbad, Calif.), harvested, and resuspended at 2×10^8 cells per 10 ml of lysis buffer consisting of 50 mM HEPES pH 7.0 containing a protease inhibitor cocktail of AEBSF 104 μM, aprotinin 80 nM, leupeptin 2 μM, bestatin 4 μM, pepstatin A 1.5 μM, and E-64 1.4 μM (0.1% of protease inhibitor cocktail P8340, Sigma-Aldrich, St. Louis, Mo.) at 4° C. The resuspended cells were homogenized using a Polytron (Brinkman, Westbury, N.Y.) at setting 6 for 10 sec., then centrifuged at 48,000×g for 10 min. The resulting pellet was washed by repeating the resuspension, homogenization and centrifugation steps. The final pellet was resuspended in buffer at 4° C. to yield a total protein concentration of 5 mg/ml, then aliquots were frozen in liquid nitrogen for further storage at −70° C. Immediately before carrying out a binding assay, an aliquot of cell homogenate was thawed and diluted to a concentration of 100 μg/ml in assay buffer consisting of 50 mM HEPES pH 5.0 and 0.1% CHAPSO. Assays were initiated in polypropylene 96-well plates (Costar, Cambridge, Mass.) by the addition of 200 μl of cell homogenate to 50 μl of assay buffer containing 1 nM radioligand (WO 2004 013098, compound 3, where the methoxy group is substituted for C(^3H)3: 80 Ci/mMol) and various concentrations of unlabelled compounds, and incubated for 1.5 hr. at 25° C. Separation of bound from free radioligand was by filtration on GFF glass fiber filters (Innotech Biosystems International, Lansing, Mich.) using an Innotech cell harvester.

[1] = displacement of 1 nM tritiated radioligand, HEK293-9B.A1 homogenate, pH 5.0, 1.5 hr at 25° C., read-out: Activity Rating (Activity based on IC50 values)

T1 sequence (P56817 46-501): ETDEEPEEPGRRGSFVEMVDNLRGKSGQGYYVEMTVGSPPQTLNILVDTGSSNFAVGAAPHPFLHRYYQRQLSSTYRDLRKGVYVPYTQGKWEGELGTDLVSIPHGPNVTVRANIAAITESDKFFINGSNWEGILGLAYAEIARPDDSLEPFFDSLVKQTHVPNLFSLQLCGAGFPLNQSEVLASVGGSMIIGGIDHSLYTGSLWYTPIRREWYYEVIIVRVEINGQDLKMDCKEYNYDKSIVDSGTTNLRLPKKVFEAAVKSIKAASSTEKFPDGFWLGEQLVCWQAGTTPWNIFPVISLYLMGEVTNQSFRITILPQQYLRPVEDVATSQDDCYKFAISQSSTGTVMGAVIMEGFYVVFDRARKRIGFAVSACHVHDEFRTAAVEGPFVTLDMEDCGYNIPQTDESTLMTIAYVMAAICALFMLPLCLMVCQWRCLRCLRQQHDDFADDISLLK

## CCC(C)[C@@]1(NC(C)=O)CCN([C@@H](CCc2ccccc2)C(=O)N[C@@H](Cc2cc(F)cc(F)c2)[C@H](O)[C@H]2Cc3ccccc3CN2)C1=O (stereo in doubt) [Example 1, (S)-2-((S)-3-Acetamido-3-((R)-sec-butyl)-2-oxopyrrolidin-1-yl)-N-((1R,2S)-3-(3,5-difluorophenyl)-1-hydroxy-1-((R)-1,2,3,4-tetrahydroisoquinolin-3-yl)propan-2-yl)-4-phenylbutanamide]
[1]
  IC50: < 10 nM

## CCC(C)[C@@]1(NC(C)=O)CCN([C@@H](CCc2ccccc2)C(=O)N[C@@H](Cc2cc(F)cc(F)c2)[C@H](O)[C@@H]2Cc3ccccc3CN2)C1=O (stereo in doubt) [Example 2, (S)-2-((S)-3-Acetamido-3-((R)-sec-butyl)-2-oxopyrrolidin-1-yl)-N-((1R,2S)-3-(3,5-difluorophenyl)-1-hydroxy-1-((S)-1,2,3,4-tetrahydroisoquinolin-3-yl)propan-2-yl)-4-phenylbutanamide]
[1]
  IC50: 10 to 1000 nM

## CCCOc1cccc2c1CN[C@@H]([C@@H](O)[C@H](Cc1cc(F)cc(F)c1)NC(=O)[C@H](CCc1ccccc1)N1CC[C@](NC(C)=O)([C@H](C)CC)C1=O)C2 [Example 3, (S)-2-((S)-3-Acetamido-3-((R)-sec-butyl)-2-oxopyrrolidin-1-yl)-N-((1R,2S)-3-(3,5-difluorophenyl)-1-hydroxy-1-((R)-8-propoxy-1,2,3,4-tetrahydroisoquinolin-3-yl)propan-2-yl)-4-phenylbutanamide]
[1]
  IC50: < 10 nM

## CCCC[C@H]1CCN([C@@H](CCc2ccccc2)C(=O)N[C@@H](Cc2cc(F)cc(F)c2)[C@H](O)[C@H]2Cc3ccccc3CN2)C1=O [Example 4]
[1]
  IC50: > 1000 nM

## CCCC[C@H]1CCN([C@@H](C)C(=O)N[C@@H](Cc2cc(F)cc(F)c2)[C@H](O)[C@H]2Cc3ccccc3CN2)C1=O [Example 5, (S)-2-((S)-3-Butyl-2-oxopyrrolidin-1-yl)-N-((1R,2S)-3-(3,5-difluorophenyl)-1-hydroxy-1-((R)-1,2,3,4-tetrahydroisoquinolin-3-yl)propan-2-yl)propanamide]
[1]
  IC50: > 1000 nM

## CC(=O)N[C@]1(CC(C)C)CCN([C@@H](CCc2ccccc2)C(=O)N[C@@H](Cc2cc(F)cc(F)c2)[C@H](O)[C@H]2Cc3ccccc3CN2)C1=O [Example 6, (S)-2-((R)-3-Acetamido-3-isobutyl-2-oxopyrrolidin-1-yl)-N-((1R,2S)-3-(3,5-difluorophenyl)-1-hydroxy-1-((R)-1,2,3,4-tetrahydroisoquinolin-3-yl)propan-2-yl)-4-phenylbutanamide]
[1]
  IC50: < 10 nM

## CCC(C)[C@@]1(NC(C)=O)CCN([C@@H](CCc2ccccc2)C(=O)N[C@@H](Cc2cc(F)cc(F)c2)[C@H](O)C2Cc3cccc(OC)c3CN2)C1=O (stereo partly drawn) [Example 7, (2S)-2-((S)-3-Acetamido-3-sec-butyl-2-oxopyrrolidin-1-yl)-N-((1R,2S)-3-(3,5-difluorophenyl)-1-hydroxy-1-(8-methoxy-1,2,3,4-tetrahydroisoquinolin-3-yl)propan-2-yl)-4-phenylbutanamide]
[1]
  IC50: < 10 nM

## CCCCN(C)C(=O)n1cc(C(=O)N[C@@H](Cc2cc(F)cc(F)c2)[C@H](O)C2Cc3ccccc3CN2)c2cccnc21 (stereo partly drawn) [Example 8, N^1-Butyl-N^3-((1R,2S)-3-(3,5-difluorophenyl)-1-hydroxy-1-(1,2,3,4-tetrahydroisoquinolin-3-yl)propan-2-yl)-N^1-methyl-1H-pyrrolo[2,3-b]pyridine-1,3-dicarboxamide]
  IC50: > 1000 nM
